Several values for one entry are separate records, joined by “and”; a condition that tells them apart may be missing. Identical values can stand only once. Inconclusive results and toxic doses are left out. No stated cut-off is given here; in the data, active means T/C of 150% or more; inactive means T/C below 125%.
Test system: L1210 leukemia ip in BDF1 mice, survival T/C
Assay: NCI In Vivo Anticancer Drug Screen. Data for tumor model L1210 Leukemia (intraperitoneal) in B6D2F1 (BDF1) mice
Conditions: endpoint: mean survival time, higher = longer survival
In short: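 Transplanted-tumor mice were given test agent; controls received vehicle only. Survival readings from the two groups were divided (treated over control).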

Measured: T/C

O=NN(CCCl)C(=O)N[C@H]1CCCC[C@@H]1Cl
active: dose: 27.5 mg/kg/injection, schedule: Q01DX001 (oral), vehicle: other 263 % of control and 297 % of control | dose: 27.5 mg/kg/injection, schedule: Q## X001 (oral), vehicle: other 438 % of control | dose: 28.0 mg/kg/injection, schedule: Q## X001 (oral), vehicle: other 340 % of control | dose: 30.0 mg/kg/injection, schedule: Q01DX005 (ip), vehicle: other 203 % of control | dose: 30.0 mg/kg/injection, schedule: Q01DX005 (oral), vehicle: other 255 % of control | dose: 30.0 mg/kg/injection, schedule: Q01DX009 (sc), vehicle: other 200 % of control | dose: 30.0 mg/kg/injection, schedule: Q## X003 (ip), vehicle: other 357 % of control | dose: 30.0 mg/kg/injection, schedule: Q## X003 (oral), vehicle: other 452 % of control | dose: 30.5 mg/kg/injection, schedule: Q01DX001 (ip), vehicle: carboxymethylcellulose (CMC) 303 % of control | dose: 30.5 mg/kg/injection, schedule: Q01DX001 (ip), vehicle: other 186 % of control and 230 % of control | dose: 30.5 mg/kg/injection, schedule: Q## X001 (ip), vehicle: other 205 % of control | dose: 30.5 mg/kg/injection, schedule: Q## X004 (ip), vehicle: other 525 % of control | dose: 34.0 mg/kg/injection, schedule: Q02DX008 (ip), vehicle: other 285 % of control and 398 % of control | dose: 36.0 mg/kg/injection, schedule: Q01DX001 (ip), vehicle: carboxymethylcellulose (CMC) 259 % of control | dose: 40.0 mg/kg/injection, schedule: Q01DX001 (ip), vehicle: carboxymethylcellulose (CMC) 235 % of control and 238 % of control | dose: 41.0 mg/kg/injection, schedule: Q01DX001 (ip), vehicle: other 590 % of control | dose: 41.0 mg/kg/injection, schedule: Q## X001 (oral), vehicle: other 403 % of control | dose: 45.6 mg/kg/injection, schedule: Q## X004 (ip), vehicle: other 289 % of control and 481 % of control | dose: 46.0 mg/kg/injection, schedule: Q01DX001 (ip), vehicle: carboxymethylcellulose (CMC) 329 % of control | dose: 48.0 mg/kg/injection, schedule: Q01DX001 (ip), vehicle: other 384 % of control | dose: 48.0 mg/kg/injection, schedule: Q01DX001 (oral), vehicle: other 476 % of control | dose: 48.0 mg/kg/injection, schedule: Q01DX001 (sc), vehicle: other 382 % of control | dose: 48.0 mg/kg/injection, schedule: Q## X008 (oral), vehicle: other 471 % of control | dose: 48.0 mg/kg/injection, schedule: Q## X024 (oral), vehicle: other 448 % of control | dose: 54.4 mg/kg/injection, schedule: Q## X032 (ip), vehicle: other 377 % of control | dose: 55.0 mg/kg/injection, schedule: Q01DX001 (oral), vehicle: other 174 % of control and 245 % of control | dose: 55.0 mg/kg/injection, schedule: Q## X001 (oral), vehicle: other 204 % of control | dose: 60.0 mg/kg/injection, schedule: Q01DX001 (ip), vehicle: carboxymethylcellulose (CMC) 296 % of control and 304 % of control and 329 % of control | dose: 61.0 mg/kg/injection, schedule: Q01DX001 (ip), vehicle: carboxymethylcellulose (CMC) 329 % of control | dose: 61.0 mg/kg/injection, schedule: Q## X001 (ip), vehicle: other 320 % of control and 527 % of control | dose: 68.0 mg/kg/injection, schedule: Q## X004 (ip), vehicle: other 180 % of control and 221 % of control | dose: 91.5 mg/kg/injection, schedule: Q01DX001 (ip), vehicle: carboxymethylcellulose (CMC) 164 % of control | dose: 91.5 mg/kg/injection, schedule: Q01DX001 (ip), vehicle: other 237 % of control and 491 % of control | dose: 96.0 mg/kg/injection, schedule: Q01DX001 (sc), vehicle: other 420 % of control | dose: 96.0 mg/kg/injection, schedule: Q## X008 (oral), vehicle: other 225 % of control
inactive: dose: 30.0 mg/kg/injection, schedule: Q01DX009 (ip), vehicle: other 121 % of control | dose: 60.0 mg/kg/injection, schedule: Q01DX009 (sc), vehicle: other 95 % of control | dose: 60.0 mg/kg/injection, schedule: Q## X003 (ip), vehicle: other 105 % of control | dose: 93.0 mg/kg/injection, schedule: Q01DX001 (ip), vehicle: carboxymethylcellulose (CMC) 108 % of control | dose: 96.0 mg/kg/injection, schedule: Q01DX001 (ip), vehicle: other 96 % of control | dose: 120.0 mg/kg/injection, schedule: Q## X003 (oral), vehicle: other 102 % of control
